Key:
[1] = tested on: mouse β-cell insulinoma line MIN-6; assay: tert-butyl hydroperoxide (tBHP) challenge of MIN-6 cells, MTT viability assay; format: cell-based; conditions: compound added 30 minutes prior to tBHP, FIG. 3
Experimental: The mouse β-cell insulinoma line MIN-6 was maintained in high glucose DMEM supplemented with 15% heat-inactivated foetal bovine serum (FBS) and 70 μM 2-mercaptoethanol.
(§1) MIN-6 cells were plated into a 96-well tissue culture plate at a density of 2.0×10^4 cells per well. The cells were cultured at 37° C. in an atmosphere of 5% CO2 for 20-24 hours before the addition of AO3003, 30 minutes prior to the onset of the tert-butyl hydroperoxide (tBHP) challenge. The cells were incubated with tBHP for 30 minutes at 37° C. (5% CO2) before 20 μl 5 mg/ml 3-(4,5-Dimethyl-2-thiazolyl)-2,5-diphenyl-2H-tetrazolium bromide (MTT) was added to each of the treatment wells. The cells were incubated for a further 3 hours at 37° C. (5% CO2) before all the supernatant was removed from the cells and the insoluble MTT formazan dye, produced by the reduction of MIT by viable cells, was solubilised in 200 μl dimethyl sulfoxide (DMSO). The absorbance of the resulting solution was measured at 540 nm and was proportional to the number of viable […] cells remaining after the tBHP challenge. DMEM is the control viability of cells without peroxide or tBHP.

[2] = tested on: mouse embryonic stem cell line E14Tg2a; assay: tert-butyl hydroperoxide (tBHP) challenge of mES cells, MTT viability assay; format: cell-based
Experimental: The mouse embryonic stem cell line E14Tg2a was maintained in a pluripotent state in knockout (KO) DMEM supplemented with leukaemia inhibitory factor (LIF), 15% (v/v) knockout serum replacement, 0.1 mM MEM non-essential amino acids, 2 mM 1-glutamine and 140 μM 2-mercaptoethanol in tissue culture flasks coated with 0.1% (w/v) gelatin.
as §1, with “mES cells were” for “MIN-6 cells were”, “into a 0.1% (w/v) gelatin coated 96-well tissue” for “into a 96-well tissue”, “density of 1.5×10^4 cells per” for “density of 2.0×10^4 cells per”, “tBHP for 90 minutes at” for “tBHP for 30 minutes at”, “reduction of MTT by viable” for “reduction of MIT by viable”, “tBHP challenge.” for “tBHP challenge. DMEM is the control viability of cells without peroxide or tBHP.”
mES cells were plated into a 0.1% (w/v) gelatin coated 96-well tissue culture plate at a density of 7.5×10^3 cells per well. The cells were cultured at 37° C. in an atmosphere of 5% CO2 for 20-24 hours before the addition of AO3003, 20 hours prior to the onset of the tert-butyl hydroperoxide (tBHP) challenge. The cells were incubated with tBHP for 90 minutes at 37° C. (5% CO2) before 20 μl 5 mg/ml 3-(4,5-Dimethyl-2-thiazolyl)-2,5-diphenyl-2H-tetrazolium bromide (MTT) was added to each of the treatment wells. The cells were incubated for a further 3 hours at 37° C. (5% CO2) before all the supernatant was removed from the cells and the insoluble MIT formazan dye, produced by the reduction of MTT by viable cells, was solubilised in 200 μl dimethyl sulfoxide (DMSO). The absorbance of the resulting solution was measured at 540 nm and was proportional to the number of viable mES cells remaining after the tBHP challenge.

SMILES: O=c1c(O)c(-c2cc(O)c(O)c(O)c2)oc2cc(C3CCCCC3)ccc12 [AO3003]
- protection against oxidative stress [1]: protects against oxidative stress
- reversal of oxidative stress-induced loss of viability ([2]; 2 μM, compound added 20 hours prior to tBHP challenge, MTT, FIG. 2): significantly reverses oxidative stress-induced loss of viability
- toxicity (control cell viability without tBHP) ([2]; cell viability at 24 h after 0, 1 and 2 μM exposure): not toxic
- period the compound remains bioprotective once incorporated into the cell ([2]; mES cells, tBHP challenge, Experiment 2): > 24 h
- protection against oxidative stress ([2]; mouse embryonic stem cell line, tBHP, summary of Experiments 1 and 2): protects against oxidative stress

Source: patent US9359323B2, “Compound” (priority 2010, dated 2016)
